Laboratory results taken from patent publication US11578055B2, “Triazacyclododecansulfonamide (“TCD”)-based protein secretion inhibitors” (KEZAR LIFE SCIENCES, priority 2018, dated 2023).
Read-outs that look alike come from different tables or passages of the source. Blank lines part the entries; values can stand above or below the molecule they belong to.

Key:
IL-23 = test: Human PBMC Cytokine Assay: IL-23; assay type: cell-based; conditions: LPS stimulation, 24 hours
Protocol: (§1) Human PBMC were freshly isolated from whole blood collections of 3 normal donors utilizing density gradient centrifugation followed by red blood cell lysis. PBMC from each donor were assayed separately. Cells were suspended in RPMI 1640 media supplemented with 5% fetal bovine serum, 2 mM L-glutamine, 10 mM HEPES, and 1× penicillin/streptomycin. PBMC were seeded at 200,000 cells/well in 96-well round-bottom plates either without stimulation or with stimulation by lipopolysaccharide (LPS, 1 μg/mL) or antibodies against human CD3 (plate-bound, 2 μg/mL) and human CD28 (soluble, 2 μg/mL). Serial dilutions of compound in DMSO/media were simultaneously added and PBMC were incubated at 37° C., 5% CO2 for 24 hours. After 24 hours, plates were centrifuged and half of the supernatant volume removed for cytokine analysis by electrochemiluminescent immunoassay (U-PLEX® Biomarker Multiplex, Meso Scale Discovery). For viability analysis, CellTiter-Glo® (Promega) was added to the remaining material in each well and quantified via luminescent plate reader.

[1] = test system: target signal sequences plus 10 amino acids fused to Gaussia Luciferase; test: Transiently Expressed Dox Induced Signal Sequence-Gluc Assay; assay type: cell-based; conditions: read-out: Signal Sequence-Gluc potency
Protocol: FIp-In 293 T-REx™ cells were transfected with 500 ng pcDNA™5/FRT/TO plasmids inserted with cDNA encoding Gaussia Luciferase fused to the 3′ end of cDNA encoding target signal sequences plus 10 amino acids. Transfected cells were incubated overnight then cells were trypsinized and plated in 384-well tissue culture plates. The next day, compound dilutions in DMSO/media containing doxycycline were added to the wells and incubated at 37° C., 5% CO2.

TNFα = test: Human PBMC Cytokine Assay: TNFα; assay type: cell-based; conditions: anti-CD3/CD28 stimulation, 24 hours
Protocol: as §1

IFNγ = test: Human PBMC Cytokine Assay: IFNγ; assay type: cell-based; conditions: anti-CD3/CD28 stimulation, 24 hours
Protocol: as §1

[2] = test system: PD1 signal sequence plus 10 amino acids fused to Gaussia Luciferase (PD1-ss+10aa/Gaussia Luciferase); test: Dox Induced PD1-ss-Gluc Assay; assay type: cell-based; conditions: 24 hr, read-out: 24 hr Dox Inducible PD1ssGluc 293FRT/TO: Mean IC50
Outline: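 Compound dilutions in DMSO/media containing doxycycline were applied to a stable, inducible 293 T-REx line carrying the luciferase fusion, then incubated at 37 °C, 5% CO2. Where stereochemistry is not drawn, values relate to isomer mixtures.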

[3] = test system: multiple myeloma cell line U266B1; test: U266 Cell Viability Assay; assay type: cell-based, human; conditions: Homo sapiens, U-266, 48 hr
Outline: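 Viability was measured by CellTiter-Glo luminescence after 48 h compound exposure at 37° C, 5% CO2. The cells were U266B1 multiple myeloma cells grown in RPMI 1640 plus 10% FBS. Where stereochemistry is not shown, values apply to the stereoisomer mixture.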

IL-6 = test: Human PBMC Cytokine Assay: IL-6; assay type: cell-based; conditions: LPS stimulation, 24 hours
Protocol: as §1

[4] = In Vitro Microsome Stability Assay (rat); assay type: in vitro ADME
Outline: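 Test article, added from a 0.25 mM DMSO stock, was incubated with liver microsomes (20 mg/mL stock) in 0.1 M potassium phosphate at 37° C, with the reaction started by NADPH. Samples were quenched with acetonitrile containing internal standard at 0 and 30 min and analysed by LC-MS/MS. Values are % remaining at 30 min versus 0 min, using IS-normalised AUC ratios.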

[5] = Target ADAM10 signal peptide +10 amino acids
[6] = Target B7H3 signal peptide +10 amino acids
[7] = Target CD73 signal peptide +10 amino acids
[8] = Target CD96 signal peptide +10 amino acids
[9] = Target CTLA-4 signal peptide +10 amino acids
[10] = Target EGFR signal peptide +10 amino acids
[11] = Target GP130 signal peptide +10 amino acids
[12] = Target HER3 signal peptide +10 amino acids
[13] = Target IFN-a1 signal peptide +10 amino acids
[14] = Target IFN-a2 signal peptide +10 amino acids
[15] = Target IFN-a4 signal peptide +10 amino acids
[16] = Target IFN-b signal peptide +10 amino acids
[17] = Target IFNAR1 signal peptide +10 amino acids
[18] = Target IFNAR2 signal peptide +10 amino acids
[19] = Target IL-1R1 signal peptide +10 amino acids
[20] = Target IL-1R2 signal peptide +10 amino acids
[21] = Target IL-1Ra (isoform 1) signal peptide +10 amino acids
[22] = Target IL-2Ra (CD25) signal peptide +10 amino acids
[23] = Target IL-6R signal peptide +10 amino acids
[24] = Target IL-6 signal peptide +10 amino acids
[25] = Target IL-7R signal peptide +10 amino acids
[26] = Target IL-12b (p40) signal peptide +10 amino acids
[27] = Target IL-17Ra signal peptide +10 amino acids
[28] = Target IL-17a signal peptide +10 amino acids
[29] = Target IL-23R signal peptide +10 amino acids
[30] = Target IL-23a signal peptide +10 amino acids
[31] = Target LAG3 signal peptide +10 amino acids
[32] = Target PD-L1 signal peptide +10 amino acids
[33] = Target PDGFRa signal peptide +10 amino acids
[34] = Target TACE (ADAM17) signal peptide +10 amino acids
[35] = Target TIGIT signal peptide +10 amino acids
[36] = Target TIM3 signal peptide +10 amino acids
[37] = Target TNFR1 signal peptide +10 amino acids
[38] = Target TNFR2 signal peptide +10 amino acids
[39] = Target VEGF signal peptide +10 amino acids
[40] = Target VGFR2 signal peptide +10 amino acids
[41] = Target VISTA signal peptide +10 amino acids
[42] = rat liver microsomes, 30 min w/ NADPH

IC50 (IL-23): 200 nM | IC50 [1, 5]: 231 nM | IC50 [1, 6]: 27 nM | IC50 [1, 7]: 58 nM | IC50 [1, 8]: 12 nM | IC50 [1, 9]: 259 nM | IC50 [1, 10]: 60 nM | IC50 [1, 11]: 201 nM | IC50 [1, 12]: 89 nM | IC50 [1, 13]: 128 nM | IC50 [1, 14]: 51 nM | IC50 [1, 15]: 221 nM | IC50 [1, 16]: 818 nM | IC50 [1, 17]: 14 nM | IC50 [1, 18]: 133 nM | IC50 [1, 19]: 374 nM | IC50 [1, 20]: 23 nM | IC50 [1, 21]: 111 nM | IC50 [1, 22]: 159 nM | IC50 [1, 23]: 78 nM | IC50 [1, 24]: 66 nM | IC50 [1, 25]: 58 nM | IC50 [1, 26]: 155 nM | IC50 [1, 27]: 424 nM | IC50 [1, 28]: 447 nM | IC50 [1, 29]: 111 nM | IC50 [1, 30]: 567 nM | IC50 [1, 31]: 75 nM | IC50 [1, 32]: 56 nM | IC50 [1, 33]: 90 nM | IC50 [1, 34]: 66 nM | IC50 [1, 35]: 162 nM | IC50 [1, 36]: 282 nM | IC50 [1, 37]: 307 nM | IC50 [1, 38]: 564 nM | IC50 [1, 39]: 111 nM | IC50 [1, 40]: 684 nM | IC50 [1, 41]: 211 nM | IC50 (TNFα): 82 nM | IC50 (IFNγ): 152 nM | IC50 ([2]; 293FRT/TO): 19.1 nM | EC50 ([3]; U266, read-out: 48 hr U266 Viability Celltiter-Glo: Mean EC50): > 25000 nM | IC50 (IL-6): 61 nM | Liver Microsome Stability-% Left after 30 min w/ NADPH (%) Rat ([4]; rat, 30 min, NADPH): 43.6%
SMILES: C[C@H]1CN(S(=O)(=O)c2ccc(N(C)C)cc2)CCCN(CC2CCCCC2)CCCN(S(=O)(=O)N2CCc3cc(Cl)ccc3C2)C1 [A87]

IC50 (IL-23): 79 nM | IC50 [1, 5]: 127 nM | IC50 [1, 6]: 9 nM | IC50 [1, 7]: 44 nM | IC50 [1, 8]: 7 nM | IC50 [1, 9]: 112 nM | IC50 [1, 10]: 47 nM | IC50 [1, 11]: 161 nM | IC50 [1, 12]: 57 nM | IC50 [1, 13]: 57 nM | IC50 [1, 14]: 44 nM | IC50 [1, 15]: 89 nM | IC50 [1, 16]: 288 nM | IC50 [1, 17]: 6 nM | IC50 [1, 18]: 42 nM | IC50 [1, 19]: 282 nM | IC50 [1, 20]: 17 nM | IC50 [1, 21]: 47 nM | IC50 [1, 22]: 55 nM | IC50 [1, 23]: 48 nM | IC50 [1, 24]: 38 nM | IC50 [1, 25]: 16 nM | IC50 [1, 26]: 74 nM | IC50 [1, 27]: 176 nM | IC50 [1, 28]: 216 nM | IC50 [1, 29]: 47 nM | IC50 [1, 30]: 223 nM | IC50 [1, 31]: 48 nM | IC50 [1, 32]: 19 nM | IC50 [1, 33]: 37 nM | IC50 [1, 34]: 40 nM | IC50 [1, 35]: 79 nM | IC50 [1, 36]: 132 nM | IC50 [1, 37]: 152 nM | IC50 [1, 38]: 186 nM | IC50 [1, 39]: 51 nM | IC50 [1, 40]: 213 nM | IC50 [1, 41]: 150 nM | IC50 (TNFα): 17 nM | IC50 (IFNγ): 21 nM | IC50 ([2]; Dox inducible, 293FRT/TO cells): 8.3 nM | EC50 ([3]; U266, Celltiter-Glo): > 25000 nM | IC50 (IL-6): 12 nM | Liver Microsome Stability-% Left after 30 min w/ NADPH (%) Rat [4, 42]: 31.6%
SMILES: COc1cc(F)ccc1N1CCN(S(=O)(=O)N2CCCN(CC3CCCCC3)CCCN(S(=O)(=O)c3ccc(N(C)C)cc3)C[C@H](C)C2)CC1 [A137]

IC50 (IL-23): 54 nM | IC50 (TNFα): 13 nM | IC50 (IFNγ): 19 nM | IC50 ([2]; Dox inducible, 293FRT/TO cells): 4.95 nM | EC50 ([3]; U266, Celltiter-Glo): > 25000 nM | IC50 (IL-6): 24 nM | Liver Microsome Stability-% Left after 30 min w/ NADPH (%) Rat [4, 42]: 14.5%
SMILES: COc1cc(F)ccc1N1CCN(S(=O)(=O)N2CCCN(CC3CCCCC3)CCCN(S(=O)(=O)c3ccc(N(C)C)cc3)C[C@H](C)C2)C[C@H]1C [A177, 4-{[(3S)-9-(cyclohexylmethyl)-5-{[(3 R)-4-(4-fluoro-2-methoxyphenyl)-3-methylpiperazin-1-yl]sulfonyl}-3-methyl-1,5,9-triazacyclododecan-1-yl]sulfonyl}-N,N-dimethylaniline]

IC50 [1, 5]: 849 nM | IC50 [1, 6]: 201 nM | IC50 [1, 7]: 375 nM | IC50 [1, 8]: 107 nM | IC50 [1, 9]: 1140 nM | IC50 [1, 10]: 412 nM | IC50 [1, 11]: 969 nM | IC50 [1, 12]: 522 nM | IC50 [1, 13]: 820 nM | IC50 [1, 14]: 404 nM | IC50 [1, 15]: 1130 nM | IC50 [1, 16]: 4300 nM | IC50 [1, 17]: 145 nM | IC50 [1, 18]: 778 nM | IC50 [1, 19]: 1470 nM | IC50 [1, 20]: 168 nM | IC50 [1, 21]: 666 nM | IC50 [1, 22]: 876 nM | IC50 [1, 23]: 445 nM | IC50 [1, 24]: 437 nM | IC50 [1, 25]: 392 nM | IC50 [1, 26]: 913 nM | IC50 [1, 27]: 1860 nM | IC50 [1, 28]: 1820 nM | IC50 [1, 29]: 666 nM | IC50 [1, 30]: 1920 nM | IC50 [1, 31]: 464 nM | IC50 [1, 32]: 366 nM | IC50 [1, 33]: 565 nM | IC50 [1, 34]: 391 nM | IC50 [1, 35]: 737 nM | IC50 [1, 36]: 1350 nM | IC50 [1, 37]: 1620 nM | IC50 [1, 38]: 2110 nM | IC50 [1, 39]: 645 nM | IC50 [1, 40]: 2590 nM | IC50 [1, 41]: 911 nM | IC50 ([2]; Dox inducible, 293FRT/TO cells): 153 nM | EC50 ([3]; U266, Celltiter-Glo): > 25000 nM | Liver Microsome Stability-% Left after 30 min w/ NADPH (%) Rat [4, 42]: 4.2%
SMILES: C[C@H]1CN(S(=O)(=O)c2ccc(N(C)C)cc2)CCCN(CC2CCCCC2)CCCN(S(=O)(=O)N2CCc3c(C#N)cccc3C2)C1 [A151, 2-{[(3S)-9-(cyclohexylmethyl)-5-[4-(dimethylamino)benzenesulfonyl]-3-methyl-1,5,9-triazacyclododecan-1-yl]sulfonyl}-1,2,3,4-tetrahydroisoquinoline-5-carbonitrile]
